Test results taken from patent US20020106354A1, “CELLULAR AND ANIMAL MODELS FOR DISEASES ASSOCIATED WITH ALTERED MITOCHONDRIAL FUNCTION” (priority 1998, published 2002).

How the values were obtained:
INS-1 cells [1] = experiment: Quantification of mitochondrial DNA by slot blotting (COX-I probe) in INS-1 cells treated with nucleoside analogs; assay type: cell-based, rat; details: for depleted for mtDNA / depleted for mitochondrial DNA / Relative [mtDNA] After Contact w/ Antiviral / effect on mtDNA content: seven days; for effect on mtDNA content: varying concentrations
Protocol: Media were replenished every two days. Cells were harvested at periodic intervals and assayed for insulin secretion and mtDNA content. INS-1 cells, or ρ^[…] cells generated using ddC as described above, were seeded into 12-well plates containing RPMI media supplemented as described above at 0.4×10^6 cells/well and cultured at 37° C., 5% CO2 for 2 days. Cells (0.7×10^6 cells/well) were rinsed with PBS and total cellular DNA was extracted using DNAzol (Molecular Research Center, Inc., Cincinnati, Ohio) according to the manufacturer's instructions. One hundred ng DNA from each cell preparation was slot-blotted onto a Zeta-Probe membrane (Bio-Rad, Hercules, Calif.) and crosslinked at 125 joules using a BioRad GS GeneLinker irradiation/energy source. The membranes were rinsed in hybridization buffer (5× SSC, 0.1% N-laurylsarcosine, 0.02% SDS, 1% blocking solution, Boehringer Mannheim, Indianapolis, Ind.) and hybridized overnight in the same buffer at 42° C. with the [^32P]-labeled rat COX I probe. Following hybridization, membranes were washed twice with 2X SSC/0.1% SDS and twice with 0.1× SSC/0.1% SDS and exposed to X-ray film. Mitochondrial DNA was quantified by densitometric scanning of the resulting autoradiographs. Time Course of Effects of ddC on Mitochondrial DNA Content of INS-1 Cells INS-1 cells were grown in RPMI medium supplemented with 10% fetal calf serum, 2 mM […], 100 U/ml penicillin, 100 μg/ml streptomycin, 10 mM HEPES, 1 mM sodium pyruvate, 50 μg/ml uridine, and 50 μM β-mercaptoethanol, in the presence of 10 μM ddC. After various times in culture, cells were harvested for analysis of mtDNA content. Total cellular DNA was extracted from approximately one million cells using DNAzol (Molecular Research Center, Inc. Cincinnati, Ohio) essentially according to the manufacturer's instructions. One hundred ng total DNA was analyzed by slot-blot on Zeta-Probe membranes (Bio-Rad, Hercules, Calif.). The membranes were hybridized with a [^32P]-labeled probe complementary to the mitochondrial gene encoding COXI. Autoradiograms were prepared, and the relative content of mitochondrial DNA (mtDNA) estimated by the relative densities of the autoradiographic bands.

patients = details: cited from earlier work
INS-1 cells [2] = experiment: Oxygen consumption (Clark oxygen electrode) before and after KCN; assay type: cell-based, rat; details: ddC for >50 days (Rho revertants), before and after 1 uM KCN (FIG. 4)
Protocol: Neurochem. 67:1897-1907, 1996) before and after the addition of 1 uM KCN. KCN inhibits mitochondrial respiration, primarily via its effect on Complex IV activity.

INS-1 cells [3] = experiment: Lactate production in ddC-treated INS-1 cells; assay type: cell-based, rat
Protocol: Lactate production was measured in ddC-treated and control INS-1 cells at approximately day 40 and day 50 of ddC incubation. Cells were grown in 35 mm dishes. Media were replenished 16 hr before assay with normal culture media containing various amounts of glucose. The media were then collected, and lactate measured using a commercially available kit, in which lactate dehydrogenase is used to produce a fluorescent compound (Sigma, St. Louis, Mo.), essentially according to the manufacturer's instructions.

INS-1 cells [4] = experiment: Insulin secretion by mtDNA-depleted INS-1 cells (insulin radioimmunoassay); assay type: cell-based, rat; details: 10 μM for 40 days
Protocol: INS-1 cells, or ρ^[…] cells generated using ddC as described above, were seeded into 12-well plates containing RPMI media supplemented as described at 0.5×10^6 cells/well and cultured at 37° C., 5% CO2 for 2 days. Cells (0.7×10^6 cells/well were rinsed with glucose-free KRH buffer (134 mM NaCl, 4.7 mM KCl, 1.2 mM KH2PO4, 1.2 mM MgSO4, 1.0 mM CaCl2, 10 mM HEPES, 10 mM NaHCO3, 0.5% BSA), then incubated in the same buffer for 1 hr at 37° C. in a humidified 5% Co2/95% air atmosphere. Fresh KRH buffer containing 0.5 mM isobutylmethyl xanthine and the following secretagogues was added: 5 mM glucose, 10 mM glucose, 20 mM glucose, 5 mM KCl or 20 mM KCl. After an additional 1 hr at 37° C., 5% CO2 the culture supernatants were collected. Insulin concentrations in the supernatants were measured and normalized to cell number using an insulin-specific radioimmunoassay kit (ICN Biochemicals, Irvine, CA) according to the manufacturer's instructions.

With `Cc1cn([C@H]2C[C@H](N=[N+]=[N-])[C@@H](CO)O2)c(=O)[nH]c1=O` [AZT, 3′-azido-3′ deoxythymidine] as the molecule, how does the “depleted for mtDNA” value (INS-1 cells [1]; 5 μM) read?
Its value is “no depletion of mtDNA”.

And the “depleted for mtDNA” value (INS-1 cells [1]; 10 μM)?
The value was 4%.

What about the “depleted for mtDNA” value (INS-1 cells [1]; 50 μM) of the same molecule?
The value was 15%.

And the “depleted for mitochondrial DNA” value (INS-1 cells [1]; 100 μM)?
The value was “no depletion of mtDNA”.

Which “Relative [mtDNA] After Contact w/ Antiviral” value (INS-1 cells [1]; 10 μM, INS-1 cells) does the source give for `O=c1[nH]c(=O)n([C@@H]2O[C@H](CO)[C@@H](O)[C@@H]2F)cc1I` [FIAU, fialuridine] here?
Its value is 0.66.

And the “depleted for mitochondrial DNA” value (INS-1 cells [1]; 100 μM)?
Its value is 61%.

What about the “Relative [mtDNA] After Contact w/ Antiviral” value (INS-1 cells [1]; 100 μM, INS-1 cells) of the same molecule?
The value was 0.39.

Which results are given for `Cc1cn([C@H]2C=C[C@@H](CO)O2)c(=O)[nH]c1=O` [d4T, 2′3′-didehydro-3-deoxythymidine]?
side-effect of treatment: peripheral neuropathy (patients): axonal peripheral neuropathy; Relative [mtDNA] After Contact w/ Antiviral (INS-1 cells [1]; 10 μM, INS-1 cells): 0.98; Relative [mtDNA] After Contact w/ Antiviral (INS-1 cells [1]; 50 μM, INS-1 cells): 0.56; depleted for mitochondrial DNA (INS-1 cells [1]; 100 μM): 95%; Relative [mtDNA] After Contact w/ Antiviral (INS-1 cells [1]; 100 μM, INS-1 cells): 0.05; effect on mtDNA content (INS-1 cells [1]; INS-1 cells (FIG. 1)): decreased mtDNA content in a dose-dependent fashion

With `Nc1ccn([C@H]2CC[C@@H](CO)O2)c(=O)n1` [ddC, 2′3′-dideoxycytidine] as the molecule, how does the “side-effect of treatment: peripheral neuropathy” value (patients) read?
Its value is “axonal peripheral neuropathy”.

What about the “side-effect of treatment: neuropathy” value (patients; particularly diabetics) of the same molecule?
The value was “toxic and painful neuropathy”.

And the “mitochondrial-mediated respiration (oxygen consumption)” value (INS-1 cells [2])?
Its value is “mitochondrial-mediated respiration (Complex IV activity) was present”.

And the “lactate produced relative to control (untreated) cells” value (INS-1 cells [3]; 40-day ddC-treated cells, 25 or 50 mM glucose)?
Its value is > 5 times.

What about the “lactate produced compared with control (untreated) cells” value (INS-1 cells [3]; after more than about 50 days ddC) of the same molecule?
The value was “comparable amounts of lactate”.

What about the KCl-mediated insulin secretion (INS-1 cells [4]) of the same molecule?
Its KCl-mediated insulin secretion is “remained intact”.

And the “glucose stimulated insulin secretion” value (INS-1 cells [4]; 5, 10, 20 mM glucose (FIG. 3))?
The value was “no glucose stimulated insulin secretion was observed”.

What about the “Relative [mtDNA] After Contact w/ Antiviral” value (INS-1 cells [1]; 5 μM, INS-1 cells) of the same molecule?
Its value is 0.86.

And the “Relative mtDNA content per million cells” value (INS-1 cells [1]; 10 μM ddC, day 3)?
Its value is 0.46.

And the “Relative mtDNA content per million cells” value (INS-1 cells [1]; 10 μM ddC, day 7)?
Its value is 0.41.

What about the “Relative mtDNA content per million cells” value (INS-1 cells [1]; 10 μM ddC, day 14) of the same molecule?
Its value is 0.055.

What about the “Relative mtDNA content per million cells” value (INS-1 cells [1]; 10 μM ddC, day 21) of the same molecule?
Its value is 0.020.

And the “Relative mtDNA content per million cells” value (INS-1 cells [1]; 10 μM ddC, day 40)?
Its value is 0.0021.

And the “Relative mtDNA content per million cells” value (INS-1 cells [1]; 10 μM ddC, day 60)?
The value was 0.550.

What about the “Relative mtDNA content per million cells” value (INS-1 cells [1]; 10 μM ddC, day 80) of the same molecule?
Its value is 0.81.

What about the “mtDNA content relative to pretreatment (day 0)” value (INS-1 cells [1]; 10 μM ddC, day 80, about one million cells) of the same molecule?
Its value is “about 80%”.

And the mtDNA detectability (INS-1 cells [1]; 10 μM, 40 days)?
Its mtDNA detectability is “undetectable”.

And the “Relative [mtDNA] After Contact w/ Antiviral” value (INS-1 cells [1]; 10 μM, INS-1 cells)?
Its value is 0.86.

What about the mtDNA detectability (INS-1 cells [1]; 25 μM, after 21 days, INS-1 cells) of the same molecule?
The mtDNA detectability was “undetectable”.

What about the “Relative [mtDNA] After Contact w/ Antiviral” value (INS-1 cells [1]; 50 μM, INS-1 cells) of the same molecule?
The value was 0.41.

And the “depleted for mitochondrial DNA” value (INS-1 cells [1]; 100 μM)?
The value was 69%.

What about the “Relative [mtDNA] After Contact w/ Antiviral” value (INS-1 cells [1]; 100 μM, INS-1 cells) of the same molecule?
Its value is 0.31.

What about the IC50 (INS-1 cells [1]; Rattus norvegicus, INS1, 168 h, seven days incubation, INS-1 cells (FIG. 1), read-out: IC50 for decrease of mtDNA content) of the same molecule?
Its IC50 is ~50 µM.

What about the “effect on mtDNA content” value (INS-1 cells [1]; INS-1 cells (FIG. 1)) of the same molecule?
The value was “decreased mtDNA content in a dose-dependent fashion”.

Which “depleted for mitochondrial DNA” value (INS-1 cells [1]; 100 μM) does the source give for `O=c1[nH]cnc2c1ncn2[C@H]1CC[C@@H](CO)O1` [ddI, 2′3′-dideoxyinosine] here?
The value was 80%.

What about the “effect on mtDNA content” value (INS-1 cells [1]; INS-1 cells (FIG. 1)) of the same molecule?
The value was “decreased mtDNA content in a dose-dependent fashion”.
